For one test, the target named is T1, full-length RIα (Bos taurus, UniProt P00514).
T1 construct: Full-length bovine RIα was expressed in E. coli 222; made in house; host or cells: E. coli 222
As to the kind of experiment: Fluorescence anisotropy binding assay (Example 9). Details: species or system bovine. The following applies: for binding to RIα, in words: compared with the unsubstituted peptide; for Kd: Table 8, truncated and substituted peptides, read-out: KD (nM) Rlα. The protocol: (§1) Each peptide was fluorescently labeled using a 25 mM solution of tetramethylrhodamine-5-maleimide (catalog number T-6027; Molecular Probes, Eugene, Oreg.) dissolved in DMSO. The peptides were labeled by incubating with a three-fold molar excess of the label for 16 hr at 4° C. in 20 mM Tris, pH 7.0 and 1 mM tris-(2-carboxyethyl) phosphine, hydrochloride (TCEP) (non-thiol reducing agent, Molecular Probes). The sample was quenched with 1 mM, β-mercaptoethanol to bind to any unreacted maleimide and diluted with 0.1% TFA for purification by HPLC. The labeled peptides were resolved using a C18 column with a water/acetonitrile gradient containing 0.1% TFA. The concentration of each peptide was determined by absorbance at 541 nm after diluting into 100% methanol and using an extinction coefficient of 91,000 M^−1 cm^−1 for absorbance of the rhodamine label at 541 nm (Molecular Probes Catalog). The peptides were stored at 4° C. in 50% acetonitrile.
(§2) Full-length murine RIIα was expressed in E. coli BL21 (DE3). Full-length bovine RIα was expressed in E. coli 222. The proteins were purified as previously described using a cAMP affinity resin (Hamuro et al. (2002) J. Mol. Biol., 321:703). The protein concentrations were determined using the following extinction coefficients at 280 nm, which were calculated using a standard concentration of protein calibrated using quantitative amino acid analysis: RIα 52,603 M^−1 cm^−1 and RIIα 62,456 M^−1 cm^−1. The proteins were stored at 4° C. in 50 mM MES pH 5.8, 50 mM NaCl, 2 mM EDTA, 2 mM EGTA, 2 mM DTT.
(§3) Binding of each fluorescently labeled peptide to the regulatory subunits was monitored using fluorescence anisotropy. RIα and RIIα were serially diluted beginning at 1 μM and 0.1 μM, respectively, into 10 mM HEPES pH 7.4, 0.15 M NaCl, 3 mM EDTA, 0.005% Surfactant P20 (Biacore) containing either 10 nM or 1 nM of fluorescently labeled peptide for RIα and RIIα, respectively. The samples were equilibrated for at least 1 hour at room temperature and fluorescence anisotropy monitored using a Fluoromax-2 (Jobin Yvon Horiba, SPEX Division, Edison, N.J.) equipped with Glan-Thompson polarizers. The rhodamine-labeled peptide was excited at 541 nm (5-10 nm bandpass) and emission monitored at 575 nm (5-10 nm bandpass). The anisotropy was calculated directly with the Fluoromax software using the following equation: r=(IVV−G*IVH)/(IVV+2G*IVH) (1) where r is the steady state anisotropy, IVV is the fluorescence intensity with the excitation and emission polarizers oriented in the vertical position (0° from normal), IVH is the fluorescence intensity with the excitation polarizer in the vertical position and the emission polarizer oriented in the horizontal position (90°) relative to the excitation polarizer, G is the monochromator grating factor which is equal to (IHV/IHH), with the first subscript indicating the position of the excitation polarizer and the second subscript indicating position of the emission polarizer. Three separate binding experiments were averaged and fit to a 1:1 binding model using the non-linear regression application in GraphPad Prism version 3.00 (GraphPad Software, San Diego, Calif.).

For a further test, the target named is T2, full-length RIIα (Mus musculus, UniProt P12367).
T2 construct: Full-length murine RIIα was expressed in E. coli BL21 (DE3); made in house; host or cells: E. coli BL21 (DE3)
T2 sequence (P12367 whole entry): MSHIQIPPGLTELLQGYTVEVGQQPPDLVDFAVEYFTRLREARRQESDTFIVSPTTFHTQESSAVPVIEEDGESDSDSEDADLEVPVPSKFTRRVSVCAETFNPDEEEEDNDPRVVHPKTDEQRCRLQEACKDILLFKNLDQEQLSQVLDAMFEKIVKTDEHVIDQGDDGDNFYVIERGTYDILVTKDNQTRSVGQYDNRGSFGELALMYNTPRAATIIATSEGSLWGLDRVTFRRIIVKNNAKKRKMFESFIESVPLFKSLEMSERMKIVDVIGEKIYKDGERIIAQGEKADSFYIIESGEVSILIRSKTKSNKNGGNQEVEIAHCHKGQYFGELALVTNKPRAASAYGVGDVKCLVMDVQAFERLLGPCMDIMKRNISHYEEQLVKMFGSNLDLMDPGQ
The experiment in a line: Fluorescence anisotropy binding assay (Example 9). Details: species or system murine. The following applies: for binding to RIIα, in words: compared with the unsubstituted peptide; for Kd: Table 8, truncated and substituted peptides, read-out: KD (nM) Rllα. The procedure: as §1, §2, §3
(In general: Polarisation of emitted light reports the rotation of a fluorescent probe.)

Ends that are not written are not given here. Peptide text beside a SMILES is read from it. * marks the point of attachment. X1 = CN(C)c1ccc2c(c1)Oc1cc(N(C)C)ccc1C21OC(=O)c2cc(N3C(=O)CC(*)C3=O)ccc21

In general, Kd refers to the concentration at which binding is half-saturated.

T1 sequence (P00514 whole entry): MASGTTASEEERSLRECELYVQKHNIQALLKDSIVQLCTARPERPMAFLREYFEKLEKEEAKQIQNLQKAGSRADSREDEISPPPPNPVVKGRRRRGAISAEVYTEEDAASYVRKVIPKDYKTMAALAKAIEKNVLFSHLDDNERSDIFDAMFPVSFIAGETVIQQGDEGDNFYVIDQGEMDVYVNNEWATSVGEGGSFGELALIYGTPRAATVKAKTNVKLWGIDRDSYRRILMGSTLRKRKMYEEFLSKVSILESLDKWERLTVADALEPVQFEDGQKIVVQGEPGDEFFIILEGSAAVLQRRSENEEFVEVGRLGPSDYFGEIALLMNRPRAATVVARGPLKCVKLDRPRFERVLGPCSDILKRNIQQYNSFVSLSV

In the case of “VQGNTDEAQEELAWKIAKMIWSD[I/V]MQQ [SEQ ID NO:54]”, at full-length RIα, the “binding to RIα, in words” value is recorded as “binds tightly”. Further, the “binding to RIIα, in words” value at full-length RIIα was “weakly”.

With `CC[C@H](C)[C@H](NC(=O)[C@H](CCCCN)NC(=O)[C@H](Cc1c[nH]c2ccccc12)NC(=O)[C@H](C)NC(=O)[C@H](CC(C)C)NC(=O)[C@H](CCC(=O)O)NC(=O)[C@H](CCC(=O)O)NC(=O)[C@@H](N)Cc1ccccc1)C(=O)N[C@@H](C)C(=O)N[C@@H](CCCCN)C(=O)N[C@@H](CCSC)C(=O)N[C@H](C(=O)N[C@@H](Cc1c[nH]c2ccccc12)C(=O)N[C@@H](CO)C(=O)N[C@@H](CC(=O)O)C(=O)N[C@H](C(=O)N[C@@H](CCSC)C(=O)N[C@@H](CCC(N)=O)C(=O)N[C@@H](CCC(N)=O)C(=O)N[C@@H](CSC1CC(=O)N(c2ccc3c(c2)C(=O)OC32c3ccc(N(C)C)cc3Oc3cc(N(C)C)ccc32)C1=O)C(N)=O)C(C)C)[C@@H](C)CC` (stereo partly shown) [PV-37] (H-FEELAWKIAKMIWSDVMQQC(X1)-NH2), the Kd at full-length RIα was determined as 19 nM; at full-length RIIα, 150 nM.

Regarding `CC[C@H](C)[C@H](NC(=O)[C@H](CCCCN)NC(=O)[C@H](Cc1c[nH]c2ccccc12)NC(=O)[C@H](C)NC(=O)[C@H](CC(C)C)NC(=O)[C@H](CCC(=O)O)NC(=O)[C@H](CCC(=O)O)NC(=O)[C@H](CCC(N)=O)NC(=O)[C@H](C)NC(=O)[C@H](CCC(=O)O)NC(=O)[C@H](CC(=O)O)NC(=O)[C@@H](NC(=O)[C@H](CC(N)=O)NC(=O)CNC(=O)[C@H](CCC(N)=O)NC(=O)[C@@H](N)C(C)C)[C@@H](C)O)C(=O)N[C@@H](C)C(=O)N[C@@H](CCCCN)C(=O)N[C@@H](CCSC)C(=O)N[C@H](C(=O)N[C@@H](Cc1c[nH]c2ccccc12)C(=O)N[C@@H](CO)C(=O)N[C@@H](CC(=O)O)C(=O)N[C@H](C(=O)N[C@@H](CCSC)C(=O)N[C@@H](CCC(N)=O)C(=O)N[C@@H](CCC(N)=O)C(=O)N[C@@H](CSC1CC(=O)N(c2ccc3c(c2)C(=O)OC32c3ccc(N(C)C)cc3Oc3cc(N(C)C)ccc32)C1=O)C(N)=O)C(C)C)[C@@H](C)CC` (stereo partly shown) [SEQ ID NO:111] (H-VQGNTDEAQEELAWKIAKMIWSDVMQQC(X1)-NH2), the Kd came to 120 nM on full-length RIα and 83 nM on full-length RIIα.

As for `CC[C@H](C)[C@H](NC(=O)[C@H](CCCCN)NC(=O)[C@H](Cc1c[nH]c2ccccc12)NC(=O)[C@H](C)NC(=O)[C@H](Cc1ccccc1)NC(=O)[C@H](CCC(=O)O)NC(=O)[C@H](CCC(=O)O)NC(=O)[C@@H](N)CCC(N)=O)C(=O)N[C@@H](C)C(=O)N[C@@H](CCCCN)C(=O)N[C@@H](CCSC)C(=O)N[C@H](C(=O)N[C@H](C(=O)N[C@@H](CO)C(=O)N[C@@H](CC(=O)O)C(=O)N[C@H](C(=O)N[C@@H](Cc1ccccc1)C(=O)N[C@@H](CCC(N)=O)C(=O)N[C@@H](CCC(N)=O)C(=O)N[C@@H](CSC1CC(=O)N(c2ccc3c(c2)C(=O)OC32c3ccc(N(C)C)cc3Oc3cc(N(C)C)ccc32)C1=O)C(N)=O)C(C)C)[C@@H](C)CC)[C@@H](C)CC` (stereo partly shown) [PV-48] (H-QEEFAWKIAKMIISDVFQQC(X1)-NH2), the Kd is 12 nM on full-length RIα and 124 nM at full-length RIIα.

Regarding `CC[C@H](C)[C@H](NC(=O)[C@H](CCCCN)NC(=O)[C@H](Cc1c[nH]c2ccccc12)NC(=O)[C@H](C)NC(=O)[C@H](CC(C)C)NC(=O)[C@H](CCC(=O)O)NC(=O)[C@H](CCC(=O)O)NC(=O)[C@@H](N)Cc1ccccc1)C(=O)N[C@@H](C)C(=O)N[C@@H](CCCCN)C(=O)N[C@@H](CCSC)C(=O)N[C@H](C(=O)N[C@H](C(=O)N[C@@H](CO)C(=O)N[C@@H](CC(=O)O)C(=O)N[C@H](C(=O)N[C@@H](Cc1ccccc1)C(=O)N[C@@H](CCC(N)=O)C(=O)N[C@@H](CCC(N)=O)C(=O)N[C@@H](CSC1CC(=O)N(c2ccc3c(c2)C(=O)OC32c3ccc(N(C)C)cc3Oc3cc(N(C)C)ccc32)C1=O)C(N)=O)C(C)C)[C@@H](C)CC)[C@@H](C)CC` (stereo partly shown) [PV-49] (H-FEELAWKIAKMIISDVFQQC(X1)-NH2), the figures for the Kd on full-length RIα and at full-length RIIα were 1.1 nM and 2.5 nM, respectively.

For `CC[C@H](C)[C@H](NC(=O)[C@H](CCCCN)NC(=O)[C@H](Cc1c[nH]c2ccccc12)NC(=O)[C@H](C)NC(=O)[C@H](CC(C)C)NC(=O)[C@H](CC(=O)O)NC(C)=O)C(=O)N[C@@H](C)C(=O)N[C@@H](CCCCN)C(=O)N[C@@H](CCSC)C(=O)N[C@H](C(=O)N[C@H](C(=O)N[C@@H](CO)C(=O)N[C@@H](CC(=O)O)C(=O)N[C@H](C(=O)N[C@@H](CCSC)C(=O)N[C@@H](CCC(N)=O)C(=O)N[C@@H](CCC(N)=O)C(=O)N[C@@H](CSC1CC(=O)N(c2ccc3c(c2)C(=O)OC32c3ccc(N(C)C)cc3Oc3cc(N(C)C)ccc32)C1=O)C(N)=O)C(C)C)C(C)C)[C@@H](C)CC` (stereo partly shown) [SEQ ID NO:112, Ac-DLAWKIAKMIVSDVMQQC] (Ac-DLAWKIAKMIVSDVMQQC(X1)-NH2), the Kd at full-length RIα amounted to 773 nM; at full-length RIIα, 107 nM.

For the compound `CC[C@H](C)[C@H](NC(=O)[C@H](CCCCN)NC(=O)[C@H](Cc1c[nH]c2ccccc12)NC(=O)[C@H](C)NC(=O)[C@H](Cc1ccccc1)NC(=O)[C@H](CCC(=O)O)NC(=O)[C@H](CCC(=O)O)NC(=O)[C@@H](N)CCC(N)=O)C(=O)N[C@@H](C)C(=O)N[C@@H](CCCCN)C(=O)N[C@@H](CCSC)C(=O)N[C@H](C(=O)N[C@H](C(=O)N[C@@H](CO)C(=O)N[C@@H](CC(=O)O)C(=O)N[C@H](C(=O)N[C@@H](Cc1ccccc1)C(=O)N[C@@H](CCC(N)=O)C(=O)N[C@@H](CCC(N)=O)C(=O)N[C@@H](CSC1CC(=O)N(c2ccc3c(c2)C(=O)OC32c3ccc(N(C)C)cc3Oc3cc(N(C)C)ccc32)C1=O)C(N)=O)C(C)C)C(C)C)[C@@H](C)CC` (stereo partly shown) [PV-47] (H-QEEFAWKIAKMIVSDVFQQC(X1)-NH2), the results for the Kd at full-length RIα and on full-length RIIα were 39 nM and 89 nM, respectively.

Consider “Ac-DLAWKIAKMIVSDVMQQ (listed as Homo sapiens) [SEQ ID NO:102]”, for which, in the test with full-length RIα, the “binding to RIα, in words” value is reported as “reduced binding”. For the same compound, the “binding to RIIα, in words” value with full-length RIIα is “reduced binding”.

These data come from US7432342B2, “Kinase anchor protein muteins, peptides thereof and related documents” (Sequenom, Inc., priority 2002, dated 2008).
